Source: US10206394B2, “Herbicidal compounds” (Syngenta Participations AG, priority 2014, dated 2019)
Where two headings read alike, the source gives them in different places.

Assays:
Experiment in all cases: Glasshouse assay for herbicidal activity (pre- and post-emergence), percentage phytotoxicity
Type in all cases: in vivo
[1] = tested on: Echinochloa crus-galli (ECHCG); settings: Echinochloa crus-galli, Rate 250 g/ha, 100%=total damage, 0%=no damage
Procedure: (§1) Test—Glasshouse Assay for Herbicidal Activity
(§2) Seeds of a variety of monocotyledonous and dicotyledonous test plants are sown in standard soil in pots. The plants are cultivated for one day (for pre-emergence (PRE)) or for about 12 days (for post-emergence (POST)) under controlled conditions in a glasshouse (warm climate species at 24/18° C., cool climate species at 20/16° C., both at day/night; 16 hours light; 65% humidity).
(§3) The test plants are then grown on, in a glasshouse (greenhouse) under controlled conditions (warm climate species at 24/18° C., cool climate species at 20/16° C., both at day/night; 16 hours light; 65% humidity) and are watered twice daily. 15 days after application of the test herbicide (15 DAA) (for post-emergence), and 20 days after application of the test herbicide (20 DAA) (for pre-emergence), the test plants are evaluated visually, and an assessed percentage phytotoxicity score is given for each herbicidal application on each plant species (with 100%=total damage to plant; 0%=no damage to plant).
(§4) The plant species tested are as follows: Alopecurus myosuroides (ALOMY), Avena fatua (AVEFA), Lolium perenne (LOLPE), Echinochloa crus-galli (ECHCG).

[2] = tested on: Avena fatua (AVEFA); settings: Avena fatua, Rate 250 g/ha, 100%=total damage, 0%=no damage
Procedure: as §1, §2, §3, §4

[3] = tested on: Alopecurus myosuroides (ALOMY); settings: Alopecurus myosuroides, Rate 250 g/ha, 100%=total damage, 0%=no damage
Procedure: as §1, §2, §3, §4

[4] = tested on: Lolium perenne (LOLPE); settings: Lolium perenne, Rate 250 g/ha, 100%=total damage, 0%=no damage
Procedure: as §1, §2, §3, §4

[5] = post-emergence, 360 h, post-emergence, assessed visually 15 DAA, read-out: Post-emergence herbicidal activity (percentage phytotoxicity) ECHCG POST
[6] = pre-emergence, 480 h, pre-emergence, assessed visually 20 DAA, read-out: Pre-emergence herbicidal activity (percentage phytotoxicity) ECHCG PRE
[7] = post-emergence, 360 h, post-emergence, assessed visually 15 DAA, read-out: Post-emergence herbicidal activity (percentage phytotoxicity) AVEFA POST
[8] = pre-emergence, 480 h, pre-emergence, assessed visually 20 DAA, read-out: Pre-emergence herbicidal activity (percentage phytotoxicity) AVEFA PRE
[9] = post-emergence, 360 h, post-emergence, assessed visually 15 DAA, read-out: Post-emergence herbicidal activity (percentage phytotoxicity) ALOMY POST
[10] = pre-emergence, 480 h, pre-emergence, assessed visually 20 DAA, read-out: Pre-emergence herbicidal activity (percentage phytotoxicity) ALOMY PRE
[11] = post-emergence, 360 h, post-emergence, assessed visually 15 DAA, read-out: Post-emergence herbicidal activity (percentage phytotoxicity) LOLPE POST
[12] = pre-emergence, 480 h, pre-emergence, assessed visually 20 DAA, read-out: Pre-emergence herbicidal activity (percentage phytotoxicity) LOLPE PRE

SMILES	pest or weed control at 250 g/ha [1, 5] [%]	pest or weed control at 250 g/ha [1, 6] [%]	pest or weed control at 250 g/ha [2, 7] [%]	pest or weed control at 250 g/ha [2, 8] [%]	pest or weed control at 250 g/ha [3, 9] [%]	pest or weed control at 250 g/ha [3, 10] [%]	pest or weed control at 250 g/ha [4, 11] [%]	pest or weed control at 250 g/ha [4, 12] [%]
COCC#CC(C)(C)NC(=O)CC1CC(=O)C(c2c(C)cc(C)cc2C)C1=O (stereo not shown) [Compound A104]	70	80	70	0	90	90	60	80
Cc1cc(C)c(C2C(=O)CC(CC(=O)NCc3ncc(C)s3)C2=O)c(C)c1 (stereo not shown) [Compound A105]	60	70	0	20	80	80	70	70
Cc1cc(C)c(C2C(=O)CC(CC(=O)NC3CCc4ccccc43)C2=O)c(C)c1 (stereo not shown) [Compound A106]	20	20	0	0	30	0	70	70
Cc1cc(C)c(C2C(=O)CC(CC(=O)NCc3ncccc3Cl)C2=O)c(C)c1 (stereo not shown) [Compound A107]	70	80	90	10	80	80	80	90
Cc1cc(C)c(C2C(=O)CC(CC(=O)NCc3ccccc3C#N)C2=O)c(C)c1 (stereo not shown) [Compound A108]	20	30	60	0	0	0	60	80
Cc1cc(C)c(C2C(=O)CC(CC(=O)NCc3ncc(C(F)(F)F)cc3Cl)C2=O)c(C)c1 (stereo not shown) [Compound A109]	80	80	80	50	90	90	80	90
Cc1cc(C)c(C2C(=O)CC(CC(=O)NCc3ccccc3F)C2=O)c(C)c1 (stereo not shown) [Compound A110]	80	90	70	50	60	70	80	100
C=CCCNC(=O)CC1CC(=O)C(c2c(C)cc(-c3ncc(Cl)cc3F)cc2C)C1=O (stereo not shown) [Compound A111]	100	100	100	90	100	90	100	100
COCC#CC(C)(C)NC(=O)CC1CC(=O)C(c2c(C)cc(-c3ncc(Cl)cc3F)cc2C)C1=O (stereo not shown) [Compound A112]	100	100	100	90	90	80	100	100
Cc1cc(-c2ncc(Cl)cc2F)cc(C)c1C1C(=O)CC(CC(=O)NCc2ncc(C(F)(F)F)cc2Cl)C1=O (stereo not shown) [Compound A113]	100	100	100	90	100	80	100	90
Cc1cc(-c2ncc(Cl)cc2F)cc(C)c1C1C(=O)CC(CC(=O)NCc2ncccc2Cl)C1=O (stereo not shown) [Compound A114]	100	100	100	90	100	90	100	90
Cc1cc(-c2ncc(Cl)cc2F)cc(C)c1C1C(=O)CC(CC(=O)NCc2ccc(C(F)(F)F)nc2)C1=O (stereo not shown) [Compound A115]	100	90	100	90	100	90	100	90
Cc1cc(-c2ncc(Cl)cc2F)cc(C)c1C1C(=O)CC(CC(=O)NCc2ccc(Cl)nc2)C1=O (stereo not shown) [Compound A116]	100	100	100	90	90	80	100	80
Cc1cc(-c2ncc(Cl)cc2F)cc(C)c1C1C(=O)CC(CC(=O)NCc2cccc(Cl)c2)C1=O (stereo not shown) [Compound A117]	100	100	100	70	90	70	100	90
Cc1cc(-c2ncc(Cl)cc2F)cc(C)c1C1C(=O)CC(CC(=O)NCc2ccccc2F)C1=O (stereo not shown) [Compound A118]	100	100	100	100	90	80	100	90
Cc1cccc(CNC(=O)CC2CC(=O)C(c3c(C)cc(-c4ncc(Cl)cc4F)cc3C)C2=O)c1 (stereo not shown) [Compound A119]	100	100	90	60	60	40	90	70
Cc1cc(-c2ncc(Cl)cc2F)cc(C)c1C1C(=O)CC(CC(=O)NCc2cccc(C(F)(F)F)c2)C1=O (stereo not shown) [Compound A120]	100	100	100	90	100	80	100	80
Cc1cc(-c2ncc(Cl)cc2F)cc(C)c1C1C(=O)CC(CC(=O)NCc2ccc(OC(F)(F)F)cc2)C1=O (stereo not shown) [Compound A121]	100	90	100	90	100	90	100	80
Cc1cc(-c2ncc(Cl)cc2F)cc(C)c1C1C(=O)CC(CC(=O)NCc2cccc([N+](=O)[O-])c2)C1=O (stereo not shown) [Compound A122]	100	90	100	0	90	70	70	20
Cc1cnc(CNC(=O)CC2CC(=O)C(c3c(C)cc(-c4ncc(Cl)cc4F)cc3C)C2=O)s1 (stereo not shown) [Compound A123]	100	90	80	70	80	60	90	80
